Source: patent US9499550B2 (BRISTOL-MYERS SQUIBB COMPANY, priority 2012, dated 2016)
Where two headings read alike, the source gives them in different places.

Key:
[1] = test system: HCV genotype 1a (H77 strain) replicon in HUH-7 cells; assay: HCV replicon luciferase reporter assay, genotype 1a; type: cell-based; conditions: Hepatitis C virus, Huh-7, 72 h, 3 days incubation, read-out: LE_1a (EC50, range)
Method in brief: (§1)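 Replicon inhibition for both genotypes was measured as Renilla luciferase signal (EnduRen, 7.5 μM final, 2 h) after 3-day, 37° C exposure of replicon-bearing HUH-7 cells in 4% FCS DMEM, 0.5% DMSO. The 1b construct carries S1179I; the 1a H77 construct carries P1496L and S2204I. Twenty-point, 3-fold dilutions were fitted four-parametrically for EC50, and CC50 was taken from multiplexed Cell Titer-Blue.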

[2] = test system: HCV genotype 1b (Con1) replicon in HUH-7 cells; assay: HCV replicon luciferase reporter assay, genotype 1b; type: cell-based; conditions: Hepatitis C virus, Huh-7, 72 h, 3 days incubation, read-out: LE_1b (EC50, range)
Method in brief: as §1

[3] = HCV genotype 1a replicon luciferase
[4] = HCV genotype 1b replicon luciferase
[5] = HCV genotype 1a replicon luciferase assay, range class
[6] = HCV genotype 1b replicon luciferase assay, range class
[7] = GETYPE1A, HCV genotype 1a replicon luciferase
[8] = GETYPE1B, HCV genotype 1b replicon luciferase

SMILES	EC50 [1, 3]	EC50 [2, 4]	EC50 [1, 7]	EC50 [2, 8]	also measured
CCCOc1ccc2c(O[C@@H]3C[C@H]4C(=O)N[C@]5(C(=O)NS(=O)(=O)C6CC6)C[C@H]5/C=C\CC[C@@H](C)C[C@@H](C)[C@H](NC(=O)OC(C)(C)C)C(=O)N4C3)nccc2c1 [Compound 5169, tert-butyl ((2R,6S,7R,9R,13aS,14aR,16aS,Z)-14a-((cyclopropylsulfonyl)carbamoyl)-7,9-dimethyl-5,16-dioxo-2-((6-propoxyisoquinolin-1-yl)oxy)-1,2,3,5,6,7,8,9,10,11,13a,14,14a,15,16,16a-hexadecahydrocyclopropa[e]pyrrolo[1,2-a][1,4]diazacyclopentadecin-6-yl)carbamate]	< 5.46 nM	< 5.46 nM			
COCCOc1cnc(O[C@@H]2C[C@H]3C(=O)N[C@]4(C(=O)NS(=O)(=O)C5(C)CC5)C[C@H]4/C=C\CC[C@H](C)C[C@@H](C)[C@H](NC(=O)OC(C)(C)C(C)(F)F)C(=O)N3C2)c2ccc(OC)cc12 [Compound 1148, 3,3-difluoro-2-methylbutan-2-yl((2R,6S,7R,9S,13aS,14aR,16aS,Z)-2-((6-methoxy-4-(2-methoxyethoxyl)isoquinolin-1-yl)oxy)-7,9-dimethyl-14a-(((1-methylcyclopropyl)sulfonyl)carbamoyl)-5,16-dioxo-1,2,3,5,6,7,8,9,10,11,13a,14,14a,15,16,16a-hexadecahydrocyclopropa[e]pyrrolo[1,2-a][1,4]diazacyclopentadecin-6-yl)carbamate]					EC50 [1, 5]: < 5.46 nM; EC50 [2, 6]: < 5.46 nM
CC[C@@H]1C[C@H](C)CC/C=C\[C@@H]2C[C@@]2(C(=O)NS(=O)(=O)C2(C)CC2)NC(=O)[C@@H]2C[C@@H](Oc3ncc(OC)c4cc(OC)c(F)cc34)CN2C(=O)[C@H]1NC(=O)OC(C)(C)C(F)(F)F [Compound 4236]			< 5.46 nM	< 5.46 nM	
CC[C@@H]1C[C@H](C)CC/C=C\[C@@H]2C[C@@]2(C(=O)NS(=O)(=O)C2CC2)NC(=O)[C@@H]2C[C@@H](Oc3nc4cc(OC(C)C)ccc4nc3C(F)(F)F)CN2C(=O)[C@H]1NC(=O)OC(C)(C)C(F)(F)F [Compound 4338]			1.01 to 5 nM	1.01 to 5 nM	
COc1cc2c3c(nc(O[C@@H]4C[C@H]5C(=O)N[C@]6(C(=O)NS(=O)(=O)C7(C)CC7)C[C@H]6/C=C\CC[C@@H](C)C[C@@H](C)[C@H](NC(=O)OC(C)(C)C(F)(F)F)C(=O)N5C4)c2cc1F)OCCC3 [Compound 1196]			0.51 to 1 nM	0.51 to 1 nM	
CCCOc1cnc(O[C@@H]2C[C@H]3C(=O)N[C@]4(C(=O)NS(=O)(=O)C5CC5)C[C@H]4/C=C\CC[C@@H](C)C[C@@H](C)[C@H](NC(=O)O[C@H](C)C(F)(F)F)C(=O)N3C2)c2ccccc12 [Compound 5095, (R)-1,1,1-trifluoropropan-2-yl((2R,6S,7R,9R,13aS,14aR,16aS,Z)-14a-((cyclopropylsulfonyl)carbamoyl)-7,9-dimethyl-5,16-dioxo-2-((4-propoxyisoquinolin-1-yl)oxy)-1,2,3,5,6,7,8,9,10,11,13a,14,14a,15,16,16a-hexadecahydrocyclopropa[e]pyrrolo[1,2-a][1,4]diazacyclopentadecin-6-yl)carbamate]	4.82 to 103 nM	4.82 to 103 nM			
COc1ccc2c(O[C@@H]3C[C@H]4C(=O)N[C@]5(C(=O)NS(=O)(=O)C6(C)CC6)C[C@H]5/C=C\CC[C@@H](C)C[C@@H](C)[C@H](N)C(=O)N4C3)ncc(OC)c2c1 [Compound 4228, (2R,6S,7R,9R,13aS,14aR,16aS,Z)-6-amino-2-(4,6-dimethoxyisoquinolin-1-yloxy)-7,9-dimethyl-N-(1-methylcyclopropylsulfonyl)-5,16-dioxo-1,2,3,5,6,7,8,9,10,11,13a,14,14a,15,16,16a-hexadecahydrocyclopropa[e]pyrrolo[1,2-a][1,4]diazacyclopentadecine-14a-carboxamide]	< 5.46 nM	< 5.46 nM			
CCCOc1cc2c(Cl)cccc2c(O[C@@H]2C[C@H]3C(=O)N[C@]4(C(=O)NS(=O)(=O)C5CC5)C[C@H]4/C=C\CC[C@H](C)C[C@@H](C)[C@H](NC(=O)OC4C[C@@H]5C[C@H]5C4)C(=O)N3C2)n1 [Compound 1085, (1S,5S)-bicyclo[3.1.0]hexan-3-yl((2R,6S,7R,9S,13aS,14aR,16aS,Z)-2-((5-chloro-3-propoxyisoquinolin-1-yl)oxy)-14a-((cyclopropylsulfonyl)carbamoyl)-7,9-dimethyl-5,16-dioxo-1,2,3,5,6,7,8,9,10,11,13a,14,14a,15,16,16a-hexadecahydrocyclopropa[e]pyrrolo[1,2-a][1,4]diazacyclopentadecin-6-yl)carbamate]					EC50 [1, 5]: < 5.46 nM; EC50 [2, 6]: < 5.46 nM
C[C@@H]1CC/C=C\[C@@H]2C[C@@]2(C(=O)NS(=O)(=O)C2(CF)CC2)NC(=O)[C@@H]2C[C@@H](Oc3nc4c(c5ccccc35)CCCO4)CN2C(=O)[C@@H](NC(=O)OC(C)(C)C(F)F)[C@H](C)C1 [Compound 6074, 1,1-difluoro-2-methylpropan-2-yl((2R,6S,7R,9R,13aS,14aR,16aS,Z)-2-((2,3-dihydro-1H-pyrano[2,3-c]isoquinolin-6-yl)oxy)-14a-(((1-(fluoromethyl)cyclopropyl)sulfonyl)carbamoyl)-7,9-dimethyl-5,16-dioxo-1,2,3,5,6,7,8,9,10,11,13a,14,14a,15,16,16a-hexadecahydrocyclopropa[e]pyrrolo[1,2-a][1,4]diazacyclopentadecin-6-yl)carbamate]	0.51 to 1 nM	1.01 to 5 nM			
CC[C@@H]1C[C@H](C)CC/C=C\[C@@H]2C[C@@]2(C(=O)NS(=O)(=O)C2CC2)NC(=O)[C@@H]2C[C@@H](Oc3nc4ccc(OC)cc4nc3N(C)C)CN2C(=O)C1NC(=O)OC(C)(C)C(F)(F)F (some centres unmarked) [Compound 4305]			35 to 620 nM	5.01 to 35 nM	
COc1ccc2c(O[C@@H]3C[C@H]4C(=O)N[C@]5(C(=O)NS(=O)(=O)C6CC6)C[C@H]5/C=C\CC[C@H](C)C[C@@H](C)[C@H](NC(=O)O[C@@H]5C[C@@H]6C[C@@H]6C5)C(=O)N4C3)nc(-c3ccccc3)cc2c1 [Compound 5189, (1R,3r,5S)-bicyclo[3.1.0]hexan-3-yl((2R,6S,7R,9S,13aS,14aR,16aS,Z)-14a-((cyclopropylsulfonyl)carbamoyl)-2-((6-methoxy-3-phenylisoquinolin-1-yl)oxy)-7,9-dimethyl-5,16-dioxo-1,2,3,5,6,7,8,9,10,11,13a,14,14a,15,16,16a-hexadecahydrocyclopropa[e]pyrrolo[1,2-a][1,4]diazacyclopentadecin-6-yl)carbamate]	< 5.46 nM	< 5.46 nM			
CC[C@@H]1C[C@H](C)CC/C=C\[C@@H]2C[C@@]2(C(=O)NS(=O)(=O)C2(C)CC2)NC(=O)[C@@H]2C[C@@H](Oc3nccc4cc(OC)ccc34)CN2C(=O)[C@H]1NC(=O)OC(C)(C)C(F)(F)F [Compound 4182]			< 5.46 nM	< 5.46 nM	
COc1cc(F)cc2c(O[C@@H]3C[C@H]4C(=O)N[C@]5(C(=O)NS(=O)(=O)C6(C)CC6)C[C@H]5/C=C\CC[C@H](C)C[C@@H](C)[C@H](NC(=O)OC(C)(C)C)C(=O)N4C3)nccc12 [Compound 3153, tert-butyl ((2R,6S,7R,9S,13aS,14aR,16aS,Z)-2-((7-fluoro-5-methoxyisoquinolin-1-yl)oxy)-7,9-dimethyl-14a-(((1-methylcyclopropyl)sulfonyl)carbamoyl)-5,16-dioxo-1,2,3,5,6,7,8,9,10,11,13a,14,14a,15,16,16a-hexadecahydrocyclopropa[e]pyrrolo[1,2-a][1,4]diazacyclopentadecin-6-yl)carbamate]					EC50 [1, 5]: 4.82 to 103 nM; EC50 [2, 6]: 4.82 to 103 nM
CCOc1cnc(O[C@@H]2C[C@H]3C(=O)N[C@]4(C(=O)NS(=O)(=O)C5(C)CC5)C[C@H]4/C=C\CC[C@@H](C)C[C@@H](CC)[C@H](NC(=O)OC(C)(C)C(F)F)C(=O)N3C2)c2ccccc12 [Compound 5531, 1,1-difluoro-2-methylpropan-2-yl((2R,6S,7R,9R,13aS,14aR,16aS,Z)-2-((4-ethoxyisoquinolin-1-yl)oxy)-7-ethyl-9-methyl-14a-(((1-methylcyclopropyl)sulfonyl)carbamoyl)-5,16-dioxo-1,2,3,5,6,7,8,9,10,11,13a,14,14a,15,16,16a-hexadecahydrocyclopropa[e]pyrrolo[1,2-a][1,4]diazacyclopentadecin-6-yl)carbamate]	1.01 to 5 nM	0.51 to 1 nM			
COc1nnc(O[C@@H]2C[C@H]3C(=O)N[C@]4(C(=O)NS(=O)(=O)C5(CF)CC5)C[C@H]4/C=C\CC[C@@H](C)C[C@@H](C)[C@H](NC(=O)OC(C)(C)C(F)(F)F)C(=O)N3C2)c2ccccc12 [Compound 5027]			< 5.46 nM	< 5.46 nM	
COc1ccc2c(O[C@@H]3C[C@H]4C(=O)N[C@]5(C(=O)NS(=O)(=O)C6(C)CC6)C[C@H]5/C=C\CC[C@@H](C)C[C@@H](C)[C@H](NC(=O)OC(C)(C)C)C(=O)N4C3)nc(-c3ccc(F)cc3)cc2c1 [Compound 3082, tert-butyl ((2R,6S,7R,9R,13aS,14aR,16aS,Z)-2-((3-(4-fluorophenyl)-6-methoxyisoquinolin-1-yl)oxy)-7,9-dimethyl-14a-(((1-methylcyclopropyl)sulfonyl)carbamoyl)-5,16-dioxo-1,2,3,5,6,7,8,9,10,11,13a,14,14a,15,16,16a-hexadecahydrocyclopropa[e]pyrrolo[1,2-a][1,4]diazacyclopentadecin-6-yl)carbamate]					EC50 [1, 5]: < 5.46 nM; EC50 [2, 6]: < 5.46 nM
